In patent publication US20020137929A1, “1 - (3-heterocyclylphenyl) isothiourea, -isourea, -guanidine and -amidine herbicidal agents” (Intellectual Property Department, BASF Aktiengesellschaft, priority 1998, published 2002):

Assays:
CASOB (Sicklepod) [1] = experiment: Postemergence herbicidal evaluation; type: in vivo, Cassia obtusifolia; settings: postemergence
Outline: (§1)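 Two-week-old seedlings sprayed with compound in 50/50 acetone/water plus 0.5% TWEEN 20, at about 0.0156 to 0.500 kg/ha, nozzle at 40 psi. Kept in greenhouse; rated visually 4-5 weeks after treatment on a 0-9 scale versus control, repeat tests averaged.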

ECHCG (Barnyardgrass) = experiment: Postemergence herbicidal evaluation; type: in vivo, Echinochloa crus-galli; settings: postemergence
Outline: as §1

ORYSAT (Rice, Tebonnet) [2] = experiment: Postemergence herbicidal evaluation; type: in vivo, Oryza sativa, (L.) Tebonnet; settings: postemergence
Outline: as §1

[3] = test system: TRZAWR (Wheat, Winter, cv Riband); experiment: Postemergence herbicidal evaluation; type: in vivo, Triticum aestivum; settings: postemergence
Outline: as §1

ABUTH (Velvetleaf) = experiment: Preemergence herbicidal evaluation; type: in vivo, Abutilon theophrasti; settings: rated 4-5 weeks after treatment
Outline: (§2)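 Scores (0–9) reflect visual comparison with control plants for stand, vigor, malformation, size and chlorosis. Compound was applied to the soil after sowing, before emergence, as an aqueous acetone spray (about 0.0156–0.500 kg/ha), and cups were kept in a greenhouse for 4–5 weeks.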

AMBEL (Ragweed, Common) = experiment: Preemergence herbicidal evaluation; type: in vivo, Ambrosia artemisifolia; settings: rated 4-5 weeks after treatment
Outline: as §2

CASOB (Sicklepod) [4] = experiment: Preemergence herbicidal evaluation; type: in vivo, Cassia obtusifolia; settings: rated 4-5 weeks after treatment
Outline: as §2

ORYSAT (Rice, Tebonnet) [5] = experiment: Preemergence herbicidal evaluation; type: in vivo, Oryza sativa, (L.) Tebonnet; settings: rated 4-5 weeks after treatment
Outline: as §2

[6] = test system: TRZAWR (Wheat, Winter, cv Riband); experiment: Preemergence herbicidal evaluation; type: in vivo, Triticum aestivum; settings: rated 4-5 weeks after treatment
Outline: as §2

ZEAMX (Corn, Field) = experiment: Preemergence herbicidal evaluation; type: in vivo, Zea mays; settings: rated 4-5 weeks after treatment
Outline: as §2

[7] = test system: ECHORC (Watergrass (Calif.)); experiment: Preemergence weed control under flooded paddy conditions; type: in vivo, Echinochloa oryzoides; settings: rated 3-4 weeks after treatment
Outline: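 Silt loam, seeds in top 0.5 cm; flood held 1.5-3 cm; test cpd as acetone/water 50/50 into flood water, ~0.0313-0.500 kg/ha a.i.; greenhouse 3-4 wk; visual 0-9 score vs control.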

MOOVA (Monochoria) = experiment: as above; type: in vivo, Monochoria vaginalis; settings: rated 3-4 weeks after treatment
Outline: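 Values are visual 0-9 scores against a control for a preemergence application into paddy flood water at about 0.0313 to 0.500 kg/ha. Greenhouse duration was three to four weeks.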

## CCOC(=O)CN1C(=O)C(CC(=O)NS(=O)(=O)C(C)C)SC1=Nc1cc(-n2c(=O)cc(C(F)(F)F)n(C)c2=O)c(F)cc1Cl (centres unmarked) [Compound 117, Ethyl 2-{{2-chloro-5-[3,6-dihydro-3-methyl-2,6-dioxo-4-(trifluoromethyl)-1(2H)-pyrimidinyl]-4-fluorophenyl}imino}-5-{[(isopropylsulfonyl)-carbamoyl]methyl}-4-oxo-3-thiazolidineacetate]
CASOB (Sicklepod) [1]; rate 0.0158 kg/ha
  herbicidal rating CASOB: 0.0
CASOB (Sicklepod) [1]; rate 0.0315 kg/ha
  herbicidal rating CASOB: 1.0
CASOB (Sicklepod) [1]; rate 0.0630 kg/ha
  herbicidal rating CASOB: 1.0
ECHCG (Barnyardgrass); rate 0.0158 kg/ha
  herbicidal rating ECHCG: 1.0
ECHCG (Barnyardgrass); rate 0.0315 kg/ha
  herbicidal rating ECHCG: 2.0
ECHCG (Barnyardgrass); rate 0.0630 kg/ha
  herbicidal rating ECHCG: 1.0
ORYSAT (Rice, Tebonnet) [2]; rate 0.0158 kg/ha
  herbicidal rating ORYSAT: 2.0
ORYSAT (Rice, Tebonnet) [2]; rate 0.0315 kg/ha
  herbicidal rating ORYSAT: 2.0
ORYSAT (Rice, Tebonnet) [2]; rate 0.0630 kg/ha
  herbicidal rating ORYSAT: 3.0
[3]; rate 0.0158 kg/ha
  herbicidal rating TRZAWR: 3.0
[3]; rate 0.0315 kg/ha
  herbicidal rating TRZAWR: 3.5
[3]; rate 0.0630 kg/ha
  herbicidal rating TRZAWR: 3.5
ABUTH (Velvetleaf); rate 0.0156 kg/ha
  Preemergence herbicidal rating ABUTH: 0.0
ABUTH (Velvetleaf); rate 0.0313 kg/ha
  Preemergence herbicidal rating ABUTH: 0.0
ABUTH (Velvetleaf); rate 0.0625 kg/ha
  Preemergence herbicidal rating ABUTH: 0.0
ABUTH (Velvetleaf); rate 0.1250 kg/ha
  Preemergence herbicidal rating ABUTH: 1.0
ABUTH (Velvetleaf); rate 0.2500 kg/ha
  Preemergence herbicidal rating ABUTH: 9.0
AMBEL (Ragweed, Common); rate 0.0156 kg/ha
  Preemergence herbicidal rating AMBEL: 0.0
AMBEL (Ragweed, Common); rate 0.0313 kg/ha
  Preemergence herbicidal rating AMBEL: 0.0
AMBEL (Ragweed, Common); rate 0.0625 kg/ha
  Preemergence herbicidal rating AMBEL: 0.0
AMBEL (Ragweed, Common); rate 0.1250 kg/ha
  Preemergence herbicidal rating AMBEL: 0.0
AMBEL (Ragweed, Common); rate 0.2500 kg/ha
  Preemergence herbicidal rating AMBEL: 7.0
CASOB (Sicklepod) [4]; rate 0.0156 kg/ha
  Preemergence herbicidal rating CASOB: 0.0
CASOB (Sicklepod) [4]; rate 0.0313 kg/ha
  Preemergence herbicidal rating CASOB: 0.0
CASOB (Sicklepod) [4]; rate 0.0625 kg/ha
  Preemergence herbicidal rating CASOB: 0.0
CASOB (Sicklepod) [4]; rate 0.1250 kg/ha
  Preemergence herbicidal rating CASOB: 1.0
CASOB (Sicklepod) [4]; rate 0.2500 kg/ha
  Preemergence herbicidal rating CASOB: 1.0
ORYSAT (Rice, Tebonnet) [5]; rate 0.0156 kg/ha
  Preemergence herbicidal rating ORYSAT: 0.0
ORYSAT (Rice, Tebonnet) [5]; rate 0.0313 kg/ha
  Preemergence herbicidal rating ORYSAT: 0.0
ORYSAT (Rice, Tebonnet) [5]; rate 0.0625 kg/ha
  Preemergence herbicidal rating ORYSAT: 0.0
ORYSAT (Rice, Tebonnet) [5]; rate 0.1250 kg/ha
  Preemergence herbicidal rating ORYSAT: 0.0
ORYSAT (Rice, Tebonnet) [5]; rate 0.2500 kg/ha
  Preemergence herbicidal rating ORYSAT: 0.0
[6]; rate 0.0156 kg/ha
  Preemergence herbicidal rating TRZAWR: 0.0
[6]; rate 0.0313 kg/ha
  Preemergence herbicidal rating TRZAWR: 0.0
[6]; rate 0.0625 kg/ha
  Preemergence herbicidal rating TRZAWR: 0.0
[6]; rate 0.1250 kg/ha
  Preemergence herbicidal rating TRZAWR: 0.0
[6]; rate 0.2500 kg/ha
  Preemergence herbicidal rating TRZAWR: 0.0
ZEAMX (Corn, Field); rate 0.0156 kg/ha
  Preemergence herbicidal rating ZEAMX: 0.0
ZEAMX (Corn, Field); rate 0.0313 kg/ha
  Preemergence herbicidal rating ZEAMX: 0.0
ZEAMX (Corn, Field); rate 0.0625 kg/ha
  Preemergence herbicidal rating ZEAMX: 0.0
ZEAMX (Corn, Field); rate 0.1250 kg/ha
  Preemergence herbicidal rating ZEAMX: 1.0
ZEAMX (Corn, Field); rate 0.2500 kg/ha
  Preemergence herbicidal rating ZEAMX: 0.0
[7]; 0.0313 kg/ha
  herbicidal effect rating, ECHORC: 0.0
[7]; 0.0625 kg/ha
  herbicidal effect rating, ECHORC: 0.0
[7]; 0.1250 kg/ha
  herbicidal effect rating, ECHORC: 0.0
[7]; 0.2500 kg/ha
  herbicidal effect rating, ECHORC: 0.0
MOOVA (Monochoria); 0.0313 kg/ha
  herbicidal effect rating, MOOVA: 6.0
MOOVA (Monochoria); 0.0625 kg/ha
  herbicidal effect rating, MOOVA: 7.0
MOOVA (Monochoria); 0.1250 kg/ha
  herbicidal effect rating, MOOVA: 9.0
MOOVA (Monochoria); 0.2500 kg/ha
  herbicidal effect rating, MOOVA: 9.0
